Results: ChEMBL document CHEMBL3044672, “N9- and N7-(Chloromethyl Phenymethyl)Chloropurine Derivatives from , '-Dichloroxylenes: Synthesis and Anticancer Activity” (2005)

How the values were obtained:
Type in all cases: functional
TK-10 = test: Cytotoxicity against Homo sapiens (human) TK10 cells after 48 hr by sulforhodamine B assay; details: TK-10, 48 h
KM12 = test: Cytotoxicity against Homo sapiens (human) KM12 cells after 48 hr by sulforhodamine B assay; details: KM12, 48 h
M14 = test: Cytotoxicity against Homo sapiens (human) M14 cells after 48 hr by sulforhodamine B assay; details: M14, 48 h
MCF7 [1] = test: Cytotoxicity against Homo sapiens (human) MCF7 cells after 48 hr by sulforhodamine B assay; details: MCF7, 48 h
SK-MEL-5 = test: Cytotoxicity against Homo sapiens (human) SK-MEL-5 cells after 48 hr by sulforhodamine B assay; details: SK-MEL-5, 48 h
NCI-H226 = test: Cytotoxicity against Homo sapiens (human) NCI-H226 cells after 48 hr by sulforhodamine B assay; details: NCI-H226, 48 h
RPMI-8226 = test: Cytotoxicity against Homo sapiens (human) RPMI8226 cells after 48 hr by sulforhodamine B assay; details: RPMI-8226, 48 h
LOX IMVI = test: Cytotoxicity against Homo sapiens (human) LOXIMVI cells after 48 hr by sulforhodamine B assay
A549 = test: Cytotoxicity against Homo sapiens (human) A549 cells after 48 hr by sulforhodamine B assay; details: A549, 48 h
[2] = Cytotoxicity against Homo sapiens (human) NCI-ADR-RES cells after 48 hr by sulforhodamine B assay
HT-29 = test: Cytotoxicity against Homo sapiens (human) HT-29 cells after 48 hr by sulforhodamine B assay; details: HT-29, 48 h
NCI-H23 = test: Cytotoxicity against Homo sapiens (human) NCI-H23 cells after 48 hr by sulforhodamine B assay; details: NCI-H23, 48 h
MDA-MB-435 = test: Cytotoxicity against Homo sapiens (human) MDA-MB-435 cells after 48 hr by sulforhodamine B assay; details: MDA-MB-435, 48 h
SK-MEL-28 = test: Cytotoxicity against Homo sapiens (human) SK-MEL-28 cells after 48 hr by sulforhodamine B assay; details: SK-MEL-28, 48 h
IGROV-1 = test: Cytotoxicity against Homo sapiens (human) IGROV1 cells after 48 hr by sulforhodamine B assay; details: IGROV-1, 48 h
UACC-257 = test: Cytotoxicity against Homo sapiens (human) UACC257 cells after 48 hr by sulforhodamine B assay; details: UACC-257, 48 h
NCI-H460 [3] = test: Cytotoxicity against Homo sapiens (human) NCI-H460 cells after 48 hr by sulforhodamine B assay; details: NCI-H460, 48 h
A498 = test: Cytotoxicity against Homo sapiens (human) A498 cells after 48 hr by sulforhodamine B assay; details: A498, 48 h
UO-31 = test: Cytotoxicity against Homo sapiens (human) UO31 cells after 48 hr by sulforhodamine B assay; details: UO-31, 48 h
U-251 = test: Cytotoxicity against Homo sapiens (human) U251 cells after 48 hr by sulforhodamine B assay; details: U-251, 48 h
Hs-578T = test: Cytotoxicity against Homo sapiens (human) Hs 578T cells after 48 hr by sulforhodamine B assay
HCT-15 = test: Cytotoxicity against Homo sapiens (human) HCT15 cells after 48 hr by sulforhodamine B assay; details: HCT-15, 48 h
DU-145 = test: Cytotoxicity against Homo sapiens (human) DU145 cells after 48 hr by sulforhodamine B assay; details: DU-145, 48 h
MCF7 [4] = test: Cytotoxicity against Homo sapiens (human) MCF7 cells assessed as cell growth at 10^-4 M after 48 hr by Alamar blue assay; details: MCF7, 48 h, read-out: Activity
NCI-H460 [5] = test: Cytotoxicity against Homo sapiens (human) NCI-H460 cells assessed as cell growth at 10^-4 M after 48 hr by Alamar blue assay; details: NCI-H460, 48 h, read-out: Activity
OVCAR-4 = test: Cytotoxicity against Homo sapiens (human) OVCAR4 cells after 48 hr by sulforhodamine B assay; details: OVCAR-4, 48 h
HCC 2998 = test: Cytotoxicity against Homo sapiens (human) HCC2998 cells after 48 hr by sulforhodamine B assay; details: HCC 2998, 48 h
K562 = test: Cytotoxicity against Homo sapiens (human) K562 cells after 48 hr by sulforhodamine B assay; details: K562, 48 h
SN12C = test: Cytotoxicity against Homo sapiens (human) SN12C cells after 48 hr by sulforhodamine B assay
PC-3 = test: Cytotoxicity against Homo sapiens (human) PC3 cells after 48 hr by sulforhodamine B assay; details: PC-3, 48 h
HOP-92 = test: Cytotoxicity against Homo sapiens (human) HOP92 cells after 48 hr by sulforhodamine B assay; details: HOP-92, 48 h
T47D = test: Cytotoxicity against Homo sapiens (human) T47D cells after 48 hr by sulforhodamine B assay
[6] = read-out: LC50 (the source's name)

SMILES: ClCc1ccccc1Cn1cnc2c(Cl)nc(Cl)nc21
- GI50 (TK-10): 1450 nM
- TGI (TK-10): 2880 nM
- CC50 (TK-10; [6]): 5620 nM
- GI50 (KM12): 1470 nM
- TGI (KM12): 2950 nM
- CC50 (KM12; [6]): 5880 nM
- GI50 (M14): 1380 nM
- LC50 (M14): 5750 nM
- TGI (M14): 2810 nM
- GI50 (MCF7 [1]): 810 nM
- LC50 (concentration killing 50% of cells) (MCF7 [1]): > 100000 nM
- TGI (MCF7 [1]): 1820 nM
- GI50 (SK-MEL-5): 420 nM
- LC50 (SK-MEL-5): 4260 nM
- TGI (SK-MEL-5): 1540 nM
- GI50 (NCI-H226): 1730 nM
- TGI (NCI-H226): 3380 nM
- CC50 (NCI-H226; [6]): 6760 nM
- GI50 (RPMI-8226): 380 nM
- TGI (RPMI-8226): 1540 nM
- GI50 (LOX IMVI): 150 nM
- LC50 (LOX IMVI): 850 nM
- TGI (LOX IMVI): 360 nM
- GI50 (A549): 2230 nM
- TGI (A549): 4670 nM
- GI50 [2]: 1510 nM
- LC50 (concentration killing 50% of cells) [2]: 6160 nM
- TGI [2]: 3020 nM
- GI50 (HT-29): 420 nM
- TGI (HT-29): > 100000 nM
- CC50 (HT-29; [6]): > 100000 nM
- GI50 (NCI-H23): 1510 nM
- TGI (NCI-H23): 3090 nM
- CC50 (NCI-H23; [6]): 6310 nM
- GI50 (MDA-MB-435): 1620 nM
- LC50 (MDA-MB-435): 6450 nM
- TGI (MDA-MB-435): 3230 nM
- GI50 (SK-MEL-28): 1230 nM
- TGI (SK-MEL-28): 3310 nM
- GI50 (IGROV-1): 1540 nM
- LC50 (IGROV-1): 7070 nM
- TGI (IGROV-1): 3310 nM
- GI50 (UACC-257): 1820 nM
- LC50 (concentration killing 50% of cells) (UACC-257): 8510 nM
- TGI (UACC-257): 3890 nM
- GI50 (NCI-H460 [3]): 3310 nM
- TGI (NCI-H460 [3]): 8710 nM
- CC50 (NCI-H460 [3]; [6]): > 100000 nM
- GI50 (A498): 2400 nM
- LC50 (lethal concentration, 50% cell kill) (A498): 9550 nM
- TGI (A498): 4780 nM
- GI50 (UO-31): 420 nM
- LC50 (concentration causing 50% net cell kill) (UO-31): 5920 nM
- TGI (UO-31): 1510 nM
- GI50 (U-251): 310 nM
- LC50 (concentration killing 50% of cells) (U-251): 4570 nM
- TGI (U-251): 1020 nM
- GI50 (Hs-578T): 1170 nM
- LC50 (Hs-578T): > 100000 nM
- TGI (Hs-578T): 3540 nM
- GI50 (HCT-15): 330 nM
- TGI (HCT-15): 1200 nM
- CC50 (HCT-15; [6]): 4780 nM
- GI50 (DU-145): 130 nM
- LC50 (DU-145): 6310 nM
- TGI (DU-145): 2950 nM
- growth at 100 µM (MCF7 [4]): 0%
- growth at 100 µM (NCI-H460 [5]): 0%
- GI50 (OVCAR-4): 1770 nM
- TGI (OVCAR-4): 3630 nM
- TGI (HCC 2998): 3380 nM
- CC50 (HCC 2998; [6]): 6160 nM
- GI50 (K562): 150 nM
- TGI (K562): 370 nM
- CC50 (K562; [6]): 910 nM
- GI50 (SN12C): 720 nM
- LC50 (50% lethal concentration) (SN12C): 4670 nM
- TGI (SN12C): 2040 nM
- GI50 (PC-3): 440 nM
- LC50 (concentration causing 50% cell kill) (PC-3): 5120 nM
- TGI (PC-3): 1620 nM
- GI50 (HOP-92): 350 nM
- TGI (HOP-92): 970 nM
- GI50 (T47D): 1990 nM
- LC50 (T47D): > 100000 nM
- TGI (T47D): 5490 nM
